Measurements as given in US20080145440A1, “Microparticle preparation and medical composition” (priority 2006, published 2008).

Columns and labels:
[1] = test system: Mouse-derived colon cancer (colon-26 adenocarcinoma) cells; experiment: In vivo experiment of anticancer treatment; parameters: species or system BALB/c male mouse; details: cancer-bearing mice
Experimental: As an experimental animal, a six-week-old BALB/c male mouse (weight 25 g, Shimizu Laboratory Supplies Co., Ltd.) was selected. […] In the experiment, the same agent treatment was performed as in the toxicity experiment. Specifically, the experiment was conducted in the following methods:
Weight changes and survival rate were observed from the day of the administration.

[2] = test system: mouse-derived colon cancer cells (colon-26); experiment: In vitro cellular toxicity experiment (CCK-8); format: cell-based; details: colon-26, 10 μg/ml, forty eight hour treatment
Experimental: Using mouse-derived colon cancer cells (colon-26), a toxicity of the microparticle to cancer cells was experimented. Specifically, the experiment was conducted according to the following method:
The colon-26 cells were disseminated on a 96 well-plate at 1′104 concentration and cultured for twenty four hours. […] Cellular toxicity was examined by measuring absorbency under 450 nm with a CCK-8 kit (Dojindo, Kumamoto, Japan), the CCK-8 kit measuring formazan substitution of tetrazolium based on an intercellular enzyme.

## N.N.[Cl][Pt][Cl] [free CDDP, cis-dichlorodiammineplatinum (II)]
[1]; 20 mg/kg of CDDP intraperitoneal
  day of minimum weight after the administration: fifth day
[1]; intraperitoneal
  anticancer effect, concentration difference 5 mg/kg vs 10 mg/kg: no significant difference in the anticancer effect
  start of death from cancer after the administration: started to die of cancer after a fortieth day
[2]
  cytostatic effect: approximately 50%
